The subject of test [1] is glioma cell lines U-87 and U-251. Kind of test: propidium iodide FACS cell cycle analysis. To be noted: 2 μM, 72 hours. It is filed as cell-based. As to the method: Cells were treated with ACY957 or DMSO for 72 hours, stained with propidium iodide, and assessed by FACS. The percentage of cells in Sub-G1, G1, S, and G2-M phases were quantified for each sample.
Glioma is a type of primary brain tumor that originates in the glial cells present in the brain or spinal cord. The glioma cell lines U-87 and U-251 were treated with either DMSO or 2 μM ACY957 for 72 hours and then subjected to propidium iodide staining and FACS analysis to evaluate cell cycle progression.

The subject of test [2] is Karpas-422 (EZH2GOF) cells. Kind of test: neutral comet assay of DSB repair. Type of test: cell-based, human. The text has this:
(A) Measurement of repair efficiency in SUDHL5 (EZH2^WT) and Karpas-422 (EZH2^GOF) cells using neutral comet assay that detects only double-strand breaks (DSBs). In the comet, the head (H) represents intact DNA and the tail (T) represents the number of DSBs in a single cell. Tail moment is a measure of length and intensity of DNA in the tail, and the average tail moments from 100 comets are indicated within the figure for each cell/treatment combination. Doxo indicates doxorubicin; H121N indicates HDAC1,2 inhibitor. (B) DNA damage in EZH2GOF cells following knockdown of HDAC1,2 using siRNA. NT indicates non-targeting control siRNA; HDAC1,2 siRNA indicates combined treatment with HDAC1 siRNA and HDAC2 siRNA. (C) Karpas-422 cells treated with DMSO solvent or HDAC1,2 inhibitor were subjected to microlaser irradiation. H3K27me3, γH2AX, Bmi-1, and serine2-phosphorylated RNA Polymerase II (engaged in transcriptional elongation) were monitored at laser break sites (arrows) after 15 minutes of recovery time. Numbers overlaying the images indicate percentages of cells with γH2AX lines that co-localized with H3K27me3, Bmi-1, or Pol2Ser2-P lines from at least four independent experiments (p value<0.01).
Indeed, EZH2, H3K27me3, and HDAC1,2 all localize to sites of DNA breaks, which links them to DNA repair. […]

Each structure is given as a SMILES string.

This note sets out measurements from patent publication US11154551B2, “HDAC1,2 inhibitors and methods of using the same” (UNIVERSITY OF UTAH RESEARCH FOUNDATION, priority 2014, dated 2021).

For `Nc1ccc(-c2cccs2)cc1NC(=O)c1ccc2nc(N3CCNCC3)ccc2c1` [ACY-957, N-(2-amino-5-(thiophen-2-yl)phenyl)-2-(piperazin-1-yl)quinoline-6-carboxamide], the “effect on the cell cycle” value in test [1] is recorded as “No effect on the cell cycle”. Further, the “DSBs, comet tail moment” value in test [2] is reported as “increase in comet tail moment”.
